For one data set, the target named is T1, MAO-A (Homo sapiens, UniProt P21397).
T1 construct: purchased Merck
T1 sequence (P21397 1-527): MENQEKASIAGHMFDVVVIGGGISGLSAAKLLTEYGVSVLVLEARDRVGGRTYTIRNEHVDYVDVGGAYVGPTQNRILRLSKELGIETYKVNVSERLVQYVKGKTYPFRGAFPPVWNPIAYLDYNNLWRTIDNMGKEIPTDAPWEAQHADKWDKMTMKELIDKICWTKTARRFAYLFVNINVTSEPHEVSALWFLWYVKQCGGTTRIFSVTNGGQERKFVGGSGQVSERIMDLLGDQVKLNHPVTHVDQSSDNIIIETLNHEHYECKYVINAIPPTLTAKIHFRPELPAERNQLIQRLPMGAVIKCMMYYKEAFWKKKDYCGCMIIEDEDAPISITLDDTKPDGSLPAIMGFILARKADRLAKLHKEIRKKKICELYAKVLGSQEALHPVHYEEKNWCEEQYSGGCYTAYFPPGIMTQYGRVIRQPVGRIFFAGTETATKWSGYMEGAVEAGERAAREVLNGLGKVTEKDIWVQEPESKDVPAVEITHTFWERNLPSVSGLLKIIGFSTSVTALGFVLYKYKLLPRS
As to the kind of experiment: MAO-A inhibition, recombinant human enzyme, kynuramine substrate, fluorometric end-point. It is filed as biochemical. As to conditions: mean ± SD of triplicate, racemic mixtures, NI = no inhibition at 100 µM. The procedure: (§1) The in vitro inhibition studies were carried out according to the published procedure, and the inhibition potencies were expressed as the IC50 values (Figure 2). […] A variety of C3 substituents were explored in this study, which included the phenyl, benzyl and 5-methylthiophen-2-yl moieties, while different substituents on the phenyl (e.g., CH3, OCH3, Cl, Br, F, CF3, OCF3, NO2, PhO) were considered.
(§2) The inhibition potencies of the 1,2,4-oxadiazin-5(6H)-one derivatives were determined using commercially available recombinant human MAO-A and MAO-B (Merck) according to the published procedure. Stock solutions of all compounds were prepared in DMSO and added to the enzyme reactions to yield a final concentration of 4% DMSO. […] Kynuramine was used as enzyme substrate for both MAO isoforms and was oxidized to ultimately form 4-hydroxyquinoline, which is a fluorescent metabolite. The concentrations of 4-hydroxyquinoline in the reactions were measured at end-point by fluorescence spectrometry (λex = 310 nm; λem = 400 nm). Using this approach, the rates of kynuramine oxidation by MAO were measured in the presence of different concentrations of the test inhibitors (0.003–100 µM) as well as in the absence of inhibitor. […] IC50 values were estimated from these plots and were reported as the mean ± SD of triplicate determinations.

The target in the next data set is T2, MAO-B (Homo sapiens, UniProt P27338).
T2 construct: purchased Merck
T2 sequence (P27338 1-520): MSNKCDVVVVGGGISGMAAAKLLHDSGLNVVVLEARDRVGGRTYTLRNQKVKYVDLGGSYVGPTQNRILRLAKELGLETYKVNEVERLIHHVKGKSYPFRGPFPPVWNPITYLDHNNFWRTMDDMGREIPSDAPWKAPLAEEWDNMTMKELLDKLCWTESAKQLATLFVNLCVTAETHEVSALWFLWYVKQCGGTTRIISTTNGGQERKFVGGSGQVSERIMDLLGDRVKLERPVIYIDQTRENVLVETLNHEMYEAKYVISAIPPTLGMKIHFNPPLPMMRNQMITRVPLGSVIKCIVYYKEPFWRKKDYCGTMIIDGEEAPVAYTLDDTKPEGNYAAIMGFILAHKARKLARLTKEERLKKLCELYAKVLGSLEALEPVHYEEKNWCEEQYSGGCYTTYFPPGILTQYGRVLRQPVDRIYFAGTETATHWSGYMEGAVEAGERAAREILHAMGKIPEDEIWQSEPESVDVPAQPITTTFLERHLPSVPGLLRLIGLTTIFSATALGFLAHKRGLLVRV
As to the kind of experiment: MAO-B inhibition, recombinant human enzyme, kynuramine substrate, fluorometric end-point. The following applies: mean ± SD of triplicate, racemic mixtures, NI = no inhibition at 100 µM. It is filed as biochemical. The procedure:
as §1, §2

On to `Cc1ccc(C2=NOCC(=O)N2)cc1` [Compound 3a, 3-(4-Methylphenyl)-4H-1,2,4-oxadiazin-5(6H)-one], for which the melting point is 140 to 141 °C. For the same compound, the IC50 on MAO-A was determined as 36.8 ± 1.83 µM. In addition, the IC50 at MAO-B is 37.2 ± 0.071 µM.

As for `O=C1CON=C(c2ccc(Br)cc2)N1` [Compound 3b, 3-(4-Bromophenyl)-4H-1,2,4-oxadiazin-5(6H)-one], the IC50 at MAO-A was found to be 14.2 ± 0.94 µM; at MAO-B it was 13.6 ± 6.63 µM.

As for `O=C1CON=C(c2ccc([N+](=O)[O-])cc2)N1` [Compound 3c, 3-(4-Nitrophenyl)-4H-1,2,4-oxadiazin-5(6H)-one], the melting point fell in the range of 248 to 250 °C. Moreover, the IC50 at MAO-A was determined as 17.3 ± 0.594 µM. In addition, on MAO-B, the IC50 worked out at 24.4 ± 2.48 µM.

In turn, `Cc1ccc(C2=NOCC(=O)N2)s1` [Compound 3d, 3-(5-Methylthiophen-2-yl)-4H-1,2,4-oxadiazin-5(6H)-one] registered a melting point of 216 to 218 °C. In addition, the IC50 on MAO-A turned out to be 34.6 ± 5.47 µM. For the same compound, the concentration for half-maximal inhibition (IC50) on MAO-B turned out to be 16.6 ± 1.67 µM.

On to `COc1ccc(C2=NOCC(=O)N2)cc1` [Compound 3e, 3-(4-Methoxyphenyl)-4H-1,2,4-oxadiazin-5(6H)-one], for which the melting point is 188 to 190 °C. In addition, the IC50 on MAO-A came to 27.1 ± 3.98 µM. Further, the concentration for half-maximal inhibition (IC50) on MAO-B was 37.6 ± 9.47 µM.

Turning to `Cc1ccc(C2=NOC(C)C(=O)N2)cc1` (stereo not shown) [Compound 4a, 6-Methyl-3-(4-methylphenyl)-4H-1,2,4-oxadiazin-5(6H)-one], the values for the concentration for half-maximal inhibition (IC50) at MAO-A and at MAO-B were 67 ± 0.007 µM and 24.5 ± 0.198 µM, respectively.

Take `CC1ON=C(c2ccc(Br)cc2)NC1=O` (stereo not shown) [Compound 4b, 3-(4-Bromophenyl)-6-methyl-4H-1,2,4-oxadiazin-5(6H)-one]: the IC50 was determined as 37.4 ± 4.18 µM at MAO-A and 27.1 ± 3.37 µM on MAO-B.

The compound `CC1ON=C(c2ccc([N+](=O)[O-])cc2)NC1=O` (stereo not shown) [Compound 4c, 6-Methyl-3-(4-nitrophenyl)-4H-1,2,4-oxadiazin-5(6H)-one] showed a melting point of 247 to 249 °C. The half-inhibitory concentration (IC50) on MAO-A worked out at 58.5 ± 4.17 µM. Besides, at MAO-B, the concentration for half-maximal inhibition (IC50) is 14.6 ± 0.092 µM.

Compound `Cc1ccc(C2=NOC(C)C(=O)N2)s1` (stereo not shown) [Compound 4d, 6-Methyl-3-(5-methylthiophen-2-yl)-4H-1,2,4-oxadiazin-5(6H)-one] showed a melting point of 167 to 169 °C. In addition, at MAO-A, the half-maximal inhibitory concentration (IC50) came to 46.2 ± 9.22 µM. Besides, on MAO-B, the half-inhibitory concentration (IC50) was found to be 22.3 ± 0.94 µM.

Regarding `COc1ccc(C2=NOC(C)C(=O)N2)cc1` (stereo not shown) [Compound 4e, 3-(4-Methoxyphenyl)-6-methyl-4H-1,2,4-oxadiazin-5(6H)-one], the IC50 stood at 51.2 ± 15.1 µM on MAO-A and 20 ± 0.643 µM on MAO-B.

For the compound `CCC1ON=C(c2ccc(C)cc2)NC1=O` (stereo not shown) [Compound 5a, 6-Ethyl-3-(4-methylphenyl)-4H-1,2,4-oxadiazin-5(6H)-one], the results for the IC50 on MAO-A and on MAO-B were > 100 µM and 4.28 ± 0.318 µM, respectively.

On to `CCC1ON=C(c2ccc(Br)cc2)NC1=O` (stereo not shown) [Compound 5b, 3-(4-Bromophenyl)-6-ethyl-4H-1,2,4-oxadiazin-5(6H)-one], for which the IC50 on MAO-A came to 35.4 ± 1.54 µM; at MAO-B, 5.11 ± 0.308 µM.

On to `CCC1ON=C(c2ccc([N+](=O)[O-])cc2)NC1=O` (stereo not shown) [Compound 5c, 6-Ethyl-3-(4-nitrophenyl)-4H-1,2,4-oxadiazin-5(6H)-one], for which the melting point lay in the range of 177 to 179 °C. Further, the IC50 on MAO-A is 57.9 ± 9.84 µM. The IC50 on MAO-B stood at 21 ± 4.09 µM.

For the compound `CCC1ON=C(c2ccc(C)s2)NC1=O` (stereo not shown) [Compound 5d, 6-Ethyl-3-(5-methylthiophen-2-yl)-4H-1,2,4-oxadiazin-5(6H)-one], the melting point fell in the range of 151 to 153 °C. For the same compound, the IC50 at MAO-A amounted to 58.1 ± 5.28 µM. Besides, on MAO-B, the half-maximal inhibitory concentration (IC50) stood at 6.14 ± 0.137 µM.

As to `CCC1ON=C(c2ccc(OC)cc2)NC1=O` (stereo not shown) [Compound 5e, 6-Ethyl-3-(4-methoxyphenyl)-4H-1,2,4-oxadiazin-5(6H)-one], the melting point was in the range of 139 to 141 °C. On MAO-A, the half-maximal inhibitory concentration (IC50) was 44.1 ± 6.05 µM. In addition, at MAO-B, the half-maximal inhibitory concentration (IC50) worked out at 6.22 ± 0.596 µM.

Regarding `CCC1ON=C(c2ccccc2)NC1=O` (stereo not shown) [Compound 5g, 6-Ethyl-3-phenyl-4H-1,2,4-oxadiazin-5(6H)-one], the IC50 at MAO-A and at MAO-B was > 100 µM throughout.

For `CCC1ON=C(c2ccc(F)cc2)NC1=O` (stereo not shown) [Compound 5h, 6-Ethyl-3-(4-fluorophenyl)-4H-1,2,4-oxadiazin-5(6H)-one], the melting point was 153 to 155 °C. Also, the half-maximal inhibitory concentration (IC50) at MAO-A was found to be 93 ± 3.23 µM. In addition, the concentration for half-maximal inhibition (IC50) at MAO-B worked out at 30.7 ± 2.02 µM.

As for `CCC1ON=C(Cc2ccccc2)NC1=O` (stereo not shown) [Compound 5i, 3-Benzyl-6-ethyl-4H-1,2,4-oxadiazin-5(6H)-one], the melting point lay in the range of 97 to 99 °C. The 50% inhibitory concentration (IC50) at MAO-A is > 100 µM. Moreover, the IC50 at MAO-B was > 100 µM.

Regarding `COC(=O)CC1ON=C(c2ccccc2)NC1=O` (stereo not shown) [Compound 6a], the IC50 on MAO-A and at MAO-B was > 100 µM throughout.

Turning to `COC(=O)CC1ON=C(c2ccccn2)NC1=O` (stereo not shown) [Compound 6b], the IC50 at MAO-A was 34.2 ± 6.15 µM; at MAO-B it was 23.6 ± 1.11 µM.

On to `COC(=O)CC1ON=C(c2ccc([N+](=O)[O-])cc2)NC1=O` (stereo not shown) [Compound 6c], for which the results for the IC50 at MAO-A and at MAO-B were > 100 µM and 52.3 ± 12.7 µM, respectively.

As to `COC(=O)CC1ON=C(c2ccc(C)s2)NC1=O` (stereo not shown) [Compound 6d], the half-maximal inhibitory concentration (IC50) on MAO-A came to 40.7 ± 8.83 µM; at MAO-B, 33.9 ± 1.44 µM.

Turning to `COC(=O)CC1ON=C(c2ccncc2)NC1=O` (stereo not shown) [Compound 6e], the half-maximal inhibitory concentration (IC50) on MAO-A and at MAO-B was > 100 µM each time.

Regarding `COC(=O)CC1ON=C(c2ccc(C(F)(F)F)cc2)NC1=O` (stereo not shown) [Compound 6f], the IC50 at MAO-A was > 100 µM; at MAO-B, 22.9 ± 5.27 µM.

Take `Cc1ccc(C2=NOC(Cc3nc(-c4ccc(C)cc4)no3)C(=O)N2)cc1` (stereo not shown) [Compound 7a]: the IC50 at MAO-A was found to be 54.3 ± 14.3 µM.

As to `O=C1NC(c2ccc(F)cc2)=NOC1Cc1nc(-c2ccc(F)cc2)no1` (stereo not shown) [Compound 7b], the figures for the IC50 at MAO-A and at MAO-B were > 100 µM and 14.3 ± 3.27 µM, respectively.

`O=C1NC(c2ccc([N+](=O)[O-])cc2)=NOC1Cc1nc(-c2ccc([N+](=O)[O-])cc2)no1` (stereo not shown) [Compound 7c]: the IC50 was 12.9 ± 0.014 µM on MAO-A and 0.371 ± 0.037 µM on MAO-B.

`O=C1NC(c2ccc(C(F)(F)F)cc2)=NOC1Cc1nc(-c2ccc(C(F)(F)F)cc2)no1` (stereo not shown) [Compound 7d]: the IC50 at MAO-A was > 100 µM; at MAO-B, 46.3 ± 17.8 µM.

For `Cc1ccc(C2=NOC(CC(=O)O)C(=O)N2)cc1` (stereo not shown) [Compound 8a], on MAO-A, the IC50 was > 100 µM.

On to `O=C(O)CC1ON=C(c2ccc(Oc3ccccc3)cc2)NC1=O` (stereo not shown) [Compound 8b], for which the half-inhibitory concentration (IC50) on MAO-A is 12.7 ± 1.34 µM; at MAO-B, > 100 µM.

Turning to `COc1ccc(C2=NOC(CC(=O)O)C(=O)N2)cc1` (stereo not shown) [Compound 8c], the IC50 on MAO-A and on MAO-B was > 100 µM throughout.

On to `O=C(O)CC1ON=C(c2ccc(C(F)(F)F)cc2)NC1=O` (stereo not shown) [Compound 8d], for which the IC50 at MAO-A and at MAO-B was > 100 µM in each case.

On to `O=C(O)CC1ON=C(c2cc(Cl)cc(Cl)c2)NC1=O` (stereo not shown) [Compound 8e], for which the IC50 on MAO-A was > 100 µM; on MAO-B, 62.2 ± 15.7 µM.

The compound `O=C(O)CC1ON=C(c2cccc(Cl)c2)NC1=O` (stereo not shown) [Compound 8f, 2-(3-(3-Chlorophenyl)-5-oxo-5,6-dihydro-4H-1,2,4-oxadiazin-6-yl)acetic acid] had a melting point of 211 to 212 °C. For the same compound, at MAO-A, the concentration for half-maximal inhibition (IC50) is > 100 µM. For the same compound, the 50% inhibitory concentration (IC50) on MAO-B is > 100 µM.

`O=C(O)CC1ON=C(c2ccc(OC(F)(F)F)cc2)NC1=O` (stereo not shown) [Compound 8g, 2-(5-Oxo-3-(4-(trifluoromethoxy)phenyl)-5,6-dihydro-4H-1,2,4-oxadiazin-6-yl)acetic acid] gave a melting point of 208 to 211 °C. In addition, the IC50 at MAO-A is > 100 µM. Also, the IC50 at MAO-B was > 100 µM.

As for `COc1ccc2c(c1)[nH]c1c(C)nccc12` [Harmine, reference compound], the half-inhibitory concentration (IC50) at MAO-B was > 100 µM.
